Laboratory results reported in patent publication US8492578B2, “Compounds useful in therapeutic and cosmetic methods” (Photoderma SA, priority 2007, dated 2013).
“Also recorded” adds a separate entry of the source. Like-named read-outs stand apart in the source and are kept apart here.

How the values were obtained:
stratum corneum = test: PpIX fluorescence on intact skin vs skin with stratum corneum removed (permeability through stratum corneum); assay type: in vivo, human; conditions: for Fluoresence epidermis: Cold cream formulation, 3 hours after topical administration; for increase of fluorescence upon removal of the stratum corneum: SC removed vs intact skin
Experimental: Permeability of compounds of the invention through the stratum corneum is assessed by measurements of fluorescence of PpIX. The expression “PpIX”, for the purpose of the present specification, stands for PpIX as reported in the literature and other natural porphyrins producing a fluorescent signal following illumination with suitable light. Permeability of the compounds of the present invention is determined by comparing PpIX-induced fluorescence of compounds of the invention applied on the surface of intact skin with fluorescence induced by the same compounds applied on skin from which the stratum corneum has been removed.
The stratum corneum was removed by dry shaving with a razor blade (BIC Classic 1 lame). The lame is gently swept 8 times over the skin without using water, razor foam or any other lubricant.
Formulations comprising compounds of the invention and controls are administered topically on the forearm or the leg using the Tegaderm™ transparent dressing. This dressing enables the transport of water and oxygen according to the specifications of the manufacturer. This dressing was removed and the remaining formulation cleaned with water just before the measurements.
A fluorescence imaging system illustrated in FIG. IX of WO 03/041673 is used to assess the extent and level of PpIX production in “macroscopic” samples (parts of the human body such as: forearm, leg, back, etc.). The experimental equipment and descriptions, as well as the ALA-DGME compounds disclosed therein are expressly incorporated herein by reference. As the goal is to assess the relative level of PpIX, red light at 635 nm is chosen as PpIX fluorescence excitation wavelength. It is indeed well known that red light penetrates deeper in the cutaneous tissues than green and violet light, the later two wavelengths corresponding to larger PpIX absorption peaks (see the PpIX fluorescence excitation and emission spectra presented on the right side in FIG. IX of WO 03/041673).
As presented in the schematic diagram presented in FIG. IX of WO 03/041673, this fluorescence imaging system involves a modified 300 W D-light source 1 (Xe arc lamp from Storz, Tuttlingen, Germany) equipped with a red bandpass filter (635 nm, 20 nm FWHM; Chroma, USA). This fluorescence excitation light is coupled in a Storz 4 mm diameter light guide 2. The output of this light guide is imaged on the tissue sample 3 with a projection objective 4 (Nikon, Japan; A F Nikkor; 1:1.4 D/50 mm) to generate a homogenous spot of 2.5 cm in diameter with an irradiance of 2 mW/cm^2 at 635 nm. The distance between this projection objective 4 and the sample 3 is 25 cm. Therefore, the light beam illuminating the sample can be considered as parallel. The fluorescence is collected by another objective 5 (Fujinon, Japan; TV zoom lens; 1:1.2/12.5-75 mm; Type H6X12.5R-MD3) through a longpass filter 6 (Schott, Germany; RG665) and the image detected by a scientific CCD camera (752×582 pixels CF 8/1 Kappa, Gleichen, Germany) equipped 7 with an image intensifier (Proxifier BV 256-2FcZ-CH, Proxitronic, Bensheim, Germany). The images are captured by the 8-bits camera frame grabber and saved on the computer 8 with the “Kappa Imagebase-control” software. Image treatment is carried out using the IPLab imaging software. The spatial resolution of the complete setup has been measured with an USAF resolution target and the value we obtained in the sample plan is 3 lp/mm, the size of the image detected by the camera being 3×4 cm^2.
A reference sample is been designed to enable a comparison of the relative fluorescence brightness between samples investigated at different times. This reference consists of a ruby disk (diameter: 12 mm; thickness: 1.02 mm; Type 8Sp3, Hans Stettler S A, Lyss, Switzerland) covered with a neutral density filter (T=2.27%) so that the signal obtained with this reference sample corresponds to the typical tissue fluorescence detected in our conditions. The images are analyzed using the NIH image software. […]

hair follicles = test: Fluorescence imaging of skin after hair removal (selectivity for hair follicle); assay type: in vivo, human; conditions: for distribution of fluorescence on skin: 20 wt. % formulation, applied after epilation
Experimental: FIGS. 1-10 are fluorescence images of human forearm or leg skin areas of 2.5 cm in diameter, the pictures being taken three hours after administration of different photosensitizer precursors under variable experimental conditions.
FIGS. 1A-B are fluorescence photographs of human skin to which compounds of the invention were applied. A formulation containing phenylalanin-ALA-amide (compound 1) at 80 wt. % was topically applied to the skin and pictures were taken 3 hours following administration. In FIG. 1A, skin was not pre-treated and fluorescence was measured with 20 milliseconds (ms) exposure time. In FIG. 1B, hair was mechanically removed by wax-epilation before administration of the formulation and fluorescence was measured with 10 milliseconds (ms) exposure time.
Formulations comprising compounds of the invention and controls are administered topically on the forearm or the leg using the Tegaderm™ transparent dressing. This dressing enables the transport of water and oxygen according to the specifications of the manufacturer. […]
A fluorescence imaging system illustrated in FIG. IX of WO 03/041673 is used to assess the extent and level of PpIX production in “macroscopic” samples (parts of the human body such as: forearm, leg, back, etc.). […] As the goal is to assess the relative level of PpIX, red light at 635 nm is chosen as PpIX fluorescence excitation wavelength. It is indeed well known that red light penetrates deeper in the cutaneous tissues than green and violet light, the later two wavelengths corresponding to larger PpIX absorption peaks (see the PpIX fluorescence excitation and emission spectra presented on the right side in FIG. IX of WO 03/041673).
As presented in the schematic diagram presented in FIG. IX of WO 03/041673, this fluorescence imaging system involves a modified 300 W D-light source 1 (Xe arc lamp from Storz, Tuttlingen, Germany) equipped with a red bandpass filter (635 nm, 20 nm FWHM; Chroma, USA). This fluorescence excitation light is coupled in a Storz 4 mm diameter light guide 2. […]

Propionobacterium acnes = test: Photodestruction of P. acnes immediately after PDT; assay type: in vivo, human; conditions: face of a volunteer
Excerpt: Immediately after illumination, the bacteria present on the administration zone are collected by immersion in a collection buffer allowing bacteria to detach and survive in suspension. Collection samples are inoculated, after suitable dilution, on agar plates, which are selective for p. acnes. CFU (Colony Forming Units) are counted after 5 days of growth on selective medium.

Pytirosporum ovale = test: Photodestruction of the yeast P. ovale 24 hours after PDT; assay type: in vivo, human; conditions: 5 wt. % in Cold cream; 3 hours, then 5-15 J/cm^2 red light; 24 hours after light exposure
Experimental: 24 hours after the end of the light exposure, scales are collected using a patch-strip method (D-Squame. Cuderm Corp. Dallas. US) and P. ovale can be counted under fluorescence microscope using a fluorochrome which is selective for this type of yeast (Fungiqual A. Kandern. D E).

[1] = test system: skin area affected with seborrheic dermatitis; test: Cosmetic PDT treatment of seborrheic dermatitis; assay type: in vivo, human; conditions: 5% in Cold cream
sebaceous gland = test: Microscopic fluorescence image of tissue sample; conditions: formulation comprising 20 wt. %
[2] = literature reports and Metvix package leaflet; cited from earlier work
[3] = skin treatment: No (intact skin)
[4] = skin treatment: SC removed by dry shaving
[5] = fluorescence on intact skin relative to skin with SC removed

Experimental for psoriatic plaque: ALA-DGME 5% is prepared in Cold cream as in the previous example. 50 mg of 5% ALA-DGME in Cold cream are applied to the psoriatic plaque. 3 hours later, the zone which received ALA-DGME is exposed to 10-30 J/cm^2 of red light. The treatment is repeated 6 times with a 2 weeks interval.

Compound	Fluoresence epidermis (stratum corneum; [3]) [arbitrary relative units]	Fluoresence epidermis (stratum corneum; [4]) [arbitrary relative units]	Penetration through epidermis (%) (stratum corneum; [5])	other results
NCC(=O)CCC(=O)Oc1ccc(CC(N)C(=O)O)cc1 (stereo not shown) [Compound 2, Tyrosine-ALA-ester]	0	114		
CC(C)CCCC(C)C1CCC2C3CC=C4CC(OC(=O)CCC(=O)CN)CCC4(C)C3CCC12C (stereo not shown) [Compound 6, ALA-Cholesteryl-ester]	1	25		increase of fluorescence upon removal of the stratum corneum (stratum corneum): 25 fold; Penetration through epidermis (%) (stratum corneum; human): 4%
ALA-ethyl-ester-ALA [Compound 8]	30	225	13.3	increase of fluorescence upon removal of the stratum corneum (stratum corneum): 7.5 fold; Penetration through epidermis (%) (stratum corneum; fluorescence on intact skin relative to skin with SC removed, listed as compound 8): 13.3%
CCCCCCOC(=O)CCC(=O)CN [Hexyl-ALA-ester, reference compound]	37	88		Penetration through epidermis (%) (stratum corneum): 42%
NCC(=O)CCC(=O)NC(Cc1ccccc1)C(=O)O (stereo not shown) [Compound 1, Phenylalanine-ALA-amide]				fluorescence at positions of hair follicles (hair follicles; 80 wt. % formulation, hair removed by wax-epilation, 3 hours after administration, 10 ms exposure): spots of high fluorescence
CCOCCOCCOC(=O)CCC(=O)CN [ALA-DGME, diethylene-glycol monoethyl ether ester of ALA]	20	57	35.1	distribution of fluorescence on skin (hair follicles): fluorescence is discretely associated to specific small spots; adverse reaction on the skin (Propionobacterium acnes; 5% in Cold cream plus red light): No adverse reaction was observed; reduction in Propionobacerium acnes counts (CFU) (Propionobacterium acnes; 5% in Cold cream, 3 hours, then 5-15 J/cm^2 red light, immediately after illumination): suitable to kill microorganism present on the skin; also recorded: substantial reduction of bacterial counts; reduction in Pytirosporum ovale counts (Pytirosporum ovale): substantial reduction of yeast counts; side effects to the surrounding skin ([1]; 24 hours after PDT): no side effects to the surrounding skin; skin reaction after PDT ([1]; 24 hours after PDT, 5-15 J/cm^2 red light): slight redness; selectivity of fluorescence for affected skin ([1]; topically applied on skin with seborrheic dermatitis, 3 hours): accumulated specifically in the skin area affected with SD; also recorded: only affected skin area shows red fluorescence; fluorescence in tissue sample (microscopic image) (sebaceous gland): fluorescence in sebaceous gland; psoriasis plaque after several PDT treatments (psoriatic plaque; 5% in Cold cream, 10-30 J/cm^2 red light, repeated 6 times with 2 weeks interval): partial clearance; accumulation of photosensitizer in psoriasis lesions (red fluorescence) (psoriatic plaque; 5% in Cold cream, 3 hours): accumulated specifically in the psoriasis lesions; side effects to the surrounding skin (psoriatic plaque; after several PDT treatments, 5% in Cold cream): no side effects to the surrounding skin; selectivity of fluorescence for psoriasis plaque (psoriatic plaque; formulation comprising 20 wt. % (figure legend)): red fluorescence covering the psoriasis plaque solely
NCC(=O)CCC(=O)OCC(O)C1OC(=O)C(O)=C1O (stereo not shown) [Compound 12, ALA-ascorbate-ester]	4	20		
ALA-Cholesterylhexyl-ester [Compound 5]	7	94	7.44	
NCC(=O)CCC(=O)O[C@H]1O[C@H](CO)[C@@H](O)[C@H](O)[C@H]1O [Compound 11, 1′-α-D-Glucose-ALA-ester]	0	12	0	
NCC(=O)CCC(=O)O [ALA, 5-aminolevulinic acid, reference compound]	31	52		Penetration through epidermis (%) (stratum corneum; human): 59.6%; distribution of fluorescence on skin (hair follicles): fluorescence is non-specific and uniformly distributed over the entire skin area; allergenic potential [2]: has not demonstrated such an allergenic potential
Phloroglucinol-tri-ALA-ester [Compound 7]	30	187	16	
